Results as given in patent publication US20240123016A1, “WITHANOLIDE-ENRICHED COMPOSITIONS AND METHODS OF USE THEREOF” (priority 2021, published 2024).

Columns and labels:
HEK293 cells = assay: cells; conditions: Homo sapiens, HEK293, read-out: IC50 for H2O2 treatment (cell viability)
Description: Cell viability was analyzed using the MTT assay described herein.

[1] = DPPH radical scavenging assay (antioxidant activity); assay type: biochemical; conditions: 1000 μg/ml, 30 minutes
Description: Antioxidant activity of various Ashwagandha samples was measured using a 2,2-diphenyl-1-picrylhydrazyl (DPPH) radical scavenging assay. DPPH is a stable free radical that produces violet solution in ethanol and, upon reduction by antioxidant compounds, produces light yellow-to-colorless solutions. For comparative antioxidant activity analysis of […], relative to non- branded and branded Ashwagandha compositions, two different dilutions (100 μg/ml and 1000 μg/ml) of each sample were prepared in ethanol and 500 μl of each sample dilution was mixed (1:1) with 500 μl of 0.04 mg/ml DPPH (Sigma #D9132-1G) ethanolic solution. Gallic acid (a natural polyphenolic antioxidant) and sucrose were used as positive and negative controls, respectively. All samples and controls were thoroughly vortexed and incubated for 30 minutes at room temperature in the dark followed by absorbance (Abs) readings at 517 nm using a spectrophotometer. Percentage antioxidant activity was calculated using the formula: 100-(AbsSample-AbsBlank/AbsControl×100), where AbsSample=Sample Dilution+DPPH Solution; AbsBlank=Sample Dilution+DPPH solvent; and AbsControl=Sample Solvent+DPPH Solution.

SMILES | IC50 (HEK293 cells) [µM] | percent anti-oxidant activity (%AA) [1] [%]
OO [H2O2, hydrogen peroxide] | 400 | –
O=C(O)c1cc(O)c(O)c(O)c1 [Gallic acid] | – | 90.12±1.1
